Test results published in patent publication US4446047A, “Pleochroic anthraquinone dyes” (Imperial Chemical Industries PLC, priority 1981, dated 1984).

Key:
[1] = Absorption maximum in liquid crystal medium E43; assay type: physicochemical; details: E43, 20° C.; for max: HPLC fractions, Table 3; for λmax: Table 4
Source text: (§15) Detection was by means of a u.v. source (254 nm) and samples, corresponding to all the peaks in the chromatogram, were collected.

[2] = Order parameter in liquid crystal medium E43; assay type: physicochemical; details: E43, 20° C.
Method: (§1) In order to provide maximum contrast between the two states it is important that the guest molecules adopt as closely as possible the time averaged orientation of the host, however this is achieved only to a limited degree because of random thermal fluctuations. The degree to which the orientation varies from the ideal is measured by a quantity known as the order parameter S which is given by the following equation: […]
where cos^2 θ is a time averaged term and θ is the instantaneous angular orientation of the molecules with respect to the time averaged orientation of the host molecules.

[3] = Molar extinction coefficient in chloroform; assay type: physicochemical
Method: To a mixture of 9.4 g of 2,7-di-n-pentyl-4,5-dinitrochrysazin from Example 25(b) in 200 ml of pyridine at 20° C. there was added a solution of 2.2 ml of thiophenol in 50 ml of pyridine. The colour of the mixture gradually changed from orange-brown to red and after 2 hours at 20° C. was drowned into water, filtered, washed successively with water and methanol and dried to yield 9.5 g of product (88% theory). The structure was confirmed by mass spectrometry and elemental analysis, C=67.5 (67.5) H=5.8 (5.8) S=6.7 (6.0) and N=3.0 (2.7).
To a mixture of 1.7 ml of 4-t-butylphenylmercaptan and 0.4 g of KOH in 50 ml of isopropanol at 60° C. was added 3.7 g of the product of Example 25(c) and the temperature raised to 80° C. for 1.5 hour. It was then cooled to room temperature, filtered, washed successively with isopropanol and methanol and dried to give 3.5 g of product. After recrystallisation from petroleum ether, the structure was confirmed by mass spectrometry and elemental analysis, C=73.0 (73.6) H=6.5 (6.8) S=9.1 (9.8).
The process of Example 25(c) was repeated using 9.6 g of 2,7-n-heptyl-4,5-dinitrochrysazin in place of the 9.4 g of 2,7-di-n-pentyl-4,5-dinitrochrysazin. The structure was confirmed by mass spectrometry.
The process of Example 25(d) was repeated using 3.8 g of 2,7-di-n-heptyl-4-phenylthio-5-nitrochrysazin in place of the 3.7 g of 2,7-di-n-pentyl-4-phenylthio-5-nitrochrysazin. After recrystallisation from petroleum ether, the structure was confirmed by mass spectrometry.

[4] = Solubility in other liquid crystal media (hosts) / liquid crystal materials; assay type: physicochemical; details: general statement
Method: (§2) The properties of some of the dyes described in the Examples were also measured in other liquid crystal media (hosts) at 20° C., unless otherwise stated, and the results are set out in Table 5.
(§3) The liquid crystal materials referred to in Table 5 as Hosts 1 to 12 have the following compositions:
(§4) Host 1 is the liquid crystal material E7, available from BDH Chemicals Ltd, which includes the compounds:
(§5) Host 2 is the liquid crystal material ZLI 1132, available from E Merck & Co, which includes the following compounds:
(§6) Host 3 is the liquid crystal material ZLI 1695, available from E Merck & Co, Darmstadt, West Germany. This has a clearing point (nematic to isotropic transition temperature) of 72° C.
(§7) Host 4 is a mixture of alkyl-cyanophenyl-dioxanes containing n-propyl, n-pentyl and n-heptyl chains.
(§8) Host 5 is the liquid crystal material ZLI 1565, available from E Merck & Co. This has a clearing point of 85° C.
(§9) Host 6 is the liquid crystal material ZLI 1624, available from E Merck & Co. This has a clearing point of 87° C.
(§10) Host 8 is the liquid crystal material RO-TN 430 available from Hoffmann La Roche Co. This has a clearing point of 69° C.
(§11) Host 9 is a mixed bicyclo-octane liquid crystal material containing the following compounds:
(§12) Host 10 is a mixture of liquid crystal materials based mainly on cyanobiphenyls and available from BDH Chemicals Ltd under the name E61.
(§13) Host 11 is a mixture of liquid crystal materials based mainly on cyanobiphenyls and available from BDH Chemicals Ltd under the name E49.
(§14) Host 12 is a mixture of fluorobicyclo(2,2,2)octane esters having negative anisotropy and containing a mixture of two compounds of the following formula: […]

[5] = Order parameter in other liquid crystal media (hosts) / liquid crystal materials; assay type: physicochemical; details: general statement
Method: as §1
where cos^2 θ is a time averaged term and θ is the instantaneous angular orientation of the molecules with respect to the time averaged orientation of the host molecules. The determination of the value of the order parameter S is well understood in the art, see for example the paper, "A new absorptive mode reflective liquid crystal display device", by D. L. White and G. N. Taylor in the Journal of Applied Physics, 1974, 45, pages […] to 4723.
as §2, §3, §4, §5, §6, §7, §8, §9, §10, §11, §12, §13, §14

[6] = Solubility in liquid crystal material E43; details: E43, 20° C., HPLC fractions, Table 3
Method: The solubility of the product was measured in liquid crystal material E43 marketed by BDH Chemicals Limited of Broom Road, Poole, Dorset, England.
as §15

Question: With `CC(C)(C)c1ccc(Sc2ccc(Sc3ccc(C(C)(C)C)cc3)c3c2C(=O)c2c(Sc4ccc(C(C)(C)C)cc4)ccc(Sc4ccc(C(C)(C)C)cc4)c2C3=O)cc1` (single isomer, unassigned) [1,4,5,8-tetrakis(4-t-butylphenylthio)anthraquinone, reference compound] as the compound, how does the max [1] read?
Answer: 550 nm

Question: What about the “Order Parameter” value ([2]; HPLC fractions, Table 3) of the same compound?
Answer: 0.78

Question: For `O=C1c2c(Sc3ccccc3)ccc(Sc3ccccc3)c2C(=O)c2c(Sc3ccccc3)ccc(Sc3ccccc3)c21` (single isomer, unassigned) [1,4,5,8-tetrakis(phenylthio)anthraquinone, reference compound], which max [1] is on record?
Answer: 550 nm

Question: And the “Order Parameter” value ([2]; HPLC fractions, Table 3)?
Answer: 0.78

Question: For `CC(CCc1cc(N)c2c(c1O)C(=O)c1c(O)c(CCC(C)CC(C)(C)C)cc(Sc3ccccc3)c1C2=O)CC(C)(C)C` (stereo not shown) [23(d), 1,8-dihydroxy-2,7-di-nonyl-4-phenylthio-5-aminoanthraquinone], which λmax [1] is on record?
Answer: 565/610

Question: What about the “Order Parameter” value ([2]; Table 4) of the same compound?
Answer: 0.74

Question: Which results are given for `CC(CCc1cc(Sc2ccccc2)c2c(c1O)C(=O)c1c(O)c(CCC(C)CC(C)(C)C)cc(Sc3ccccc3)c1C2=O)CC(C)(C)C` (stereo not shown) [23(f), 1,8-dihydroxy-2,7-dinonyl-4,5-diphenylthio-AQ]?
Answer: λmax [1]: 590 nm; Order Parameter ([2]; Table 4): 0.72

Question: With `CCCCCCCCCCCCc1cc(Sc2ccccc2)c2c(c1O)C(=O)c1c(O)c(CCCCCCCCCCCC)cc(Sc3ccc(C(C)(C)C)cc3)c1C2=O` [24(d), 1,8-dihydroxy-2,7-didodecyl-4-phenylthio-5-(4-t-butylphenylthio)-AQ] as the compound, how does the λmax [1] read?
Answer: 590 nm

Question: And the “Order Parameter” value ([2]; Table 4)?
Answer: 0.83

Question: For `CCCCCCCc1cc(Sc2ccccc2)c2c(c1O)C(=O)c1c(O)c(CCCCCCC)cc(Sc3ccc(C(C)(C)C)cc3)c1C2=O` [26(d), 2,7-Di-n-heptyl-4-phenylthio-5-(4-t-butylphenylthio)chrysazin], which λmax [1] is on record?
Answer: 592 nm

Question: What about the molar extinction coefficient ([3]; 592 nm) of the same compound?
Answer: 19,650

Question: And the “Order Parameter” value ([2]; Table 4)?
Answer: 0.78

Question: What about the “solubility in liquid crystal materials (in words)” value [4] of the same compound?
Answer: particularly good

Question: And the “order parameter in liquid crystal materials (in words)” value [5]?
Answer: high

Question: With `Cc1cccc(Sc2cccc3c2C(=O)c2cccc(Sc4ccccc4)c2C3=O)c1` [Example 12, 1-phenylthio-5(3-methylphenylthio)AQ] as the compound, how does the λmax [1] read?
Answer: 464 nm

Question: What about the “Order Parameter” value ([2]; Table 4) of the same compound?
Answer: 0.78

Question: Which results are given for `Cc1ccc(Sc2cccc3c2C(=O)c2cccc(Sc4ccccc4)c2C3=O)cc1` [Example 13, 1-phenylthio-5(4-methylphenylthio)AQ]?
Answer: λmax [1]: 464 nm; Order Parameter ([2]; Table 4): 0.80

Question: For `CCCCSc1cccc2c1C(=O)c1cccc(Sc3ccccc3)c1C2=O` [Example 14, 1-phenylthio-5(n-butylthio)AQ], which λmax [1] is on record?
Answer: 470 nm

Question: And the “Order Parameter” value ([2]; Table 4)?
Answer: 0.75

Question: What does the source list for `O=C1c2cccc(Sc3ccc(-c4ccccc4)cc3)c2C(=O)c2cccc(Sc3ccccc3)c21` [Example 15, 1-phenylthio-5(4-phenylphenylthio)AQ]?
Answer: λmax [1]: 460 nm; Order Parameter ([2]; Table 4): 0.78

Question: For `O=C1c2cccc(SC3CCCCC3)c2C(=O)c2cccc(Sc3ccccc3)c21` [Example 16, 1-phenylthio-5-cyclohexylthio-AQ], which λmax [1] is on record?
Answer: 465 nm

Question: And the “Order Parameter” value ([2]; Table 4)?
Answer: 0.81

Question: Which λmax [1] does the source give for `CC(C)(C)c1ccc(Sc2ccc(N)c3c2C(=O)c2c(N)ccc(Sc4ccccc4)c2C3=O)cc1` [Example 18, 1-phenylthio-5(4-t-butylphenylthio)-4,8-diamino-AQ] here?
Answer: 605 nm

Question: What about the “Order Parameter” value ([2]; Table 4) of the same compound?
Answer: 0.73

Question: With `CC(C)(C)c1ccc(Sc2cccc3c2C(=O)c2c(Sc4ccccc4)ccc(Sc4ccc(C(C)(C)C)cc4)c2C3=O)cc1` [Example 22, 1,5-di(4-t-butylphenylthio)-4-phenylthio-AQ] as the compound, how does the λmax [1] read?
Answer: 520 nm

Question: And the “Order Parameter” value ([2]; Table 4)?
Answer: 0.81

Question: With `CC(CCc1cc(Sc2ccccc2)c2c(c1O)C(=O)c1c([N+](=O)[O-])cc(CCC(C)CC(C)(C)C)c(O)c1C2=O)CC(C)(C)C` (stereo not shown) [Example 23(a), 1,5-dihydroxy-2,6-dinonyl-4-phenylthio-8-nitroanthraquinone] as the compound, how does the λmax [1] read?
Answer: 565/610

Question: What about the “Order Parameter” value ([2]; Table 4) of the same compound?
Answer: 0.72

Question: For `CC(CCc1cc(N)c2c(c1O)C(=O)c1c(Sc3ccccc3)cc(CCC(C)CC(C)(C)C)c(O)c1C2=O)CC(C)(C)C` (stereo not shown) [Example 23(c), 1,5-dihydroxy-2,6-dinonyl-4-phenylthio-8-aminoanthraquinone], which λmax [1] is on record?
Answer: 565/610

Question: What about the “Order Parameter” value ([2]; Table 4) of the same compound?
Answer: 0.73

Question: Which λmax [1] does the source give for `CC(CCc1cc(Sc2ccccc2)c2c(c1O)C(=O)c1c(Sc3ccccc3)cc(CCC(C)CC(C)(C)C)c(O)c1C2=O)CC(C)(C)C` (stereo not shown) [Example 23(e), 1,5-dihydroxy-2,6-dinonyl-4,8-diphenylthio-AQ] here?
Answer: 590 nm

Question: What about the “Order Parameter” value ([2]; Table 4) of the same compound?
Answer: 0.77

Question: With `CCCCCc1cc(Sc2ccccc2)c2c(c1O)C(=O)c1c(O)c(CCCCC)cc([N+](=O)[O-])c1C2=O` [Example 25(c), 2,7-Di-n-pentyl-4-phenylthio-5-nitrochrysazin] as the compound, how does the molar extinction coefficient ([3]; 540 nm) read?
Answer: 12,541

Question: What does the source list for `CCCCCc1cc(Sc2ccccc2)c2c(c1O)C(=O)c1c(O)c(CCCCC)cc(Sc3ccc(C(C)(C)C)cc3)c1C2=O` [Example 25(d), 2,7-di-n-pentyl-4-phenylthio-5-(4-t-butylphenylthio)chrysazin]?
Answer: λmax [1]: 592 nm; molar extinction coefficient ([3]; 592 nm): 19,183; Order Parameter ([2]; Table 4): 0.77

Question: For `CCCCCCCc1cc(Sc2ccccc2)c2c(c1O)C(=O)c1c(O)c(CCCCCCC)cc([N+](=O)[O-])c1C2=O` [Example 26(c), 2,7-Di-n-heptyl-4-phenylthio-5-nitrochrysazin], which molar extinction coefficient ([3]; 540 nm) is on record?
Answer: 12,095

Question: What does the source list for `CC(C)(C)c1ccc(Sc2ccc(Sc3ccccc3)c3c2C(=O)c2c(Sc4ccc(C(C)(C)C)cc4)ccc(Sc4ccc(C(C)(C)C)cc4)c2C3=O)cc1` [Fraction 2, tris-(t-butylphenylthio)-phenylthio-AQ]?
Answer: max [1]: 550 nm; Order Parameter ([2]; HPLC fractions, Table 3): 0.78

Question: What does the source list for `CC(C)(C)c1ccc(Sc2ccc(Sc3ccccc3)c3c2C(=O)c2c(Sc4ccccc4)ccc(Sc4ccccc4)c2C3=O)cc1` [Fraction 5, tris-(phenylthio)-t-butylphenylthio-AQ]?
Answer: max [1]: 550 nm; Order Parameter ([2]; HPLC fractions, Table 3): 0.78

Question: For “bis-(phenylthio)-bis-(t-butylphenylthio)AQ [Fraction 3]”, which Solubility [6] is on record?
Answer: < 0.5%

Question: With “bis-(phenylthio)-bis-(t-butylphenylthio)AQ [Fraction 3a]” as the compound, how does the max [1] read?
Answer: 550 nm

Question: What about the “Order Parameter” value ([2]; HPLC fractions, Table 3) of the same compound?
Answer: 0.78

Question: With “bis-(phenylthio)-bis-(t-butylphenylthio)AQ [Fraction 4]” as the compound, how does the max [1] read?
Answer: 550 nm

Question: What about the “Order Parameter” value ([2]; HPLC fractions, Table 3) of the same compound?
Answer: 0.77
